In ChEMBL document CHEMBL2375285, “Novel (coumarin-3-yl)carbamates as selective MAO-B inhibitors: synthesis, in vitro and in vivo assays, theoretical evaluation of ADME properties and docking study” (Eur J Med Chem, 2013):
Active and inactive are the calls of the source. The calls are words filed in the database; no cut-off is given here.

Columns and labels:
Mus musculus [1] = assay: Potentiation of L-dopa/carbidopa activity in reserpine-treated CD1 mouse assessed as increase in straightening at 100 mg/kg, ip administered 22 hrs post reserpine challenge followed by L-dopa/carbidopa adminstration at 30 mins measured after 1 hr relative to control; assay type: functional, organism-based; parameters: dose 100 mg/kg
Mus musculus [2] = assay: Neurotoxicity in CD1 mouse assessed as decrease in straightening at 10 mg/kg, ip measured for 1 hr relative to control; assay type: toxicity, organism-based; parameters: dose 10 mg/kg, route intraperitoneal; conditions: in vivo
Mus musculus [3] = assay: Neurotoxicity in CD1 mouse assessed as decrease in motor activity at 10 mg/kg, ip measured for 1 hr relative to control; assay type: toxicity, organism-based; parameters: dose 10 mg/kg, route intraperitoneal; conditions: in vivo
Mus musculus [4] = assay: Potentiation of L-dopa/carbidopa activity in reserpine-treated CD1 mouse assessed as increase in velocity at 100 mg/kg, ip administered 22 hrs post reserpine challenge followed by L-dopa/carbidopa adminstration at 30 mins measured after 1 hr relative to control; assay type: functional, organism-based; parameters: dose 100 mg/kg
Mus musculus [5] = assay: Potentiation of L-dopa/carbidopa activity in reserpine-treated CD1 mouse assessed as increase in movement at 100 mg/kg, ip administered 22 hrs post reserpine challenge followed by L-dopa/carbidopa adminstration at 30 mins measured after 1 hr relative to control; assay type: functional, organism-based; parameters: dose 100 mg/kg
Mus musculus [6] = assay: Neurotoxicity in CD1 mouse assessed as decrease in velocity at 10 mg/kg, ip measured for 1 hr relative to control; assay type: toxicity, organism-based; parameters: dose 10 mg/kg, route intraperitoneal; conditions: in vivo
Mus musculus [7] = assay: Toxicity in reserpine-treated CD1 mouse assessed as mortality at 100 mg/kg, ip measured for 24 to 48 hrs; assay type: organism-based; parameters: dose 100 mg/kg, route intraperitoneal; conditions: in vivo
Mus musculus [8] = assay: Potentiation of L-dopa/carbidopa activity in reserpine-treated CD1 mouse assessed as increase in movement at 10 mg/kg, ip administered 22 hrs post reserpine challenge followed by L-dopa/carbidopa adminstration at 30 mins measured after 1 hr relative to control; assay type: functional, organism-based; parameters: dose 10 mg/kg
Mus musculus [9] = assay: Neurotoxicity in CD1 mouse assessed as decrease in movement at 10 mg/kg, ip measured for 1 hr relative to control; assay type: toxicity, organism-based; parameters: dose 10 mg/kg, route intraperitoneal; conditions: in vivo
Mus musculus [10] = assay: Potentiation of L-dopa/carbidopa activity in reserpine-treated CD1 mouse assessed as increase in motor activity at 100 mg/kg, ip administered 22 hrs post reserpine challenge followed by L-dopa/carbidopa adminstration at 30 mins measured after 1 hr relative to control; assay type: functional, organism-based; parameters: dose 100 mg/kg
Mus musculus [11] = assay: Potentiation of L-dopa/carbidopa activity in reserpine-treated CD1 mouse assessed as increase in motor activity at 10 mg/kg, ip administered 22 hrs post reserpine challenge followed by L-dopa/carbidopa adminstration at 30 mins measured after 1 hr relative to control; assay type: functional, organism-based; parameters: dose 10 mg/kg
Mus musculus [12] = assay: Potentiation of L-dopa/carbidopa activity in reserpine-treated CD1 mouse assessed as increase in velocity at 10 mg/kg, ip administered 22 hrs post reserpine challenge followed by L-dopa/carbidopa adminstration at 30 mins measured after 1 hr relative to control; assay type: functional, organism-based; parameters: dose 10 mg/kg
Mus musculus [13] = assay: Potentiation of L-dopa/carbidopa activity in reserpine-treated CD1 mouse assessed as increase in straightening at 10 mg/kg, ip administered 22 hrs post reserpine challenge followed by L-dopa/carbidopa adminstration at 30 mins measured after 1 hr relative to control; assay type: functional, organism-based; parameters: dose 10 mg/kg

For `O=C(Nc1cc2ccccc2oc1=O)OCc1ccccc1`, the Activity (Mus musculus [1]) was “Active”, the Activity (Mus musculus [2]) was “Non-toxic” and the Activity (Mus musculus [3]) was “Non-toxic”. The Activity (Mus musculus [4]) was “Active”, the Activity (Mus musculus [5]) was “Active” and the Activity (Mus musculus [6]) was “Non-toxic”. For the same compound, the Activity (Mus musculus [7]) was “Non-toxic”, the Activity (Mus musculus [8]) was “Active” and the Activity (Mus musculus [9]) was “Non-toxic”. The Activity (Mus musculus [10]) was “Active” and the Activity (Mus musculus [11]) was “Active”.
With `C#CCN(C)[C@H](C)Cc1ccccc1` [SELEGILINE] the Activity (Mus musculus [2]) was “Toxic”, the Activity (Mus musculus [12]) was “Active” and the Activity (Mus musculus [3]) was “Toxic”. For the same compound, the Activity (Mus musculus [13]) was “Active”, the Activity (Mus musculus [6]) was “Toxic” and the Activity (Mus musculus [8]) was “Active”. The Activity (Mus musculus [9]) was “Toxic” and the Activity (Mus musculus [11]) was “Active”.
